From patent US12391673B2, “LANCL ligands” (NImmune Biopharma, Inc., priority 2020, dated 2025) come the findings set out here.

For experiment [1], the system named is Western diet model of nonalcoholic steatohepatitis. In words: Western diet / CCl4 model of nonalcoholic steatohepatitis. It counts as in vivo, C57BL/6 mice. The note with it: 5 mg/kg oral gavage daily, after 4 weeks of treatment, vs vehicle. As for the experimental part:
WD-induced model. C57BL/6 mice were placed on a Western diet consisting of a high-fat diet with addition of 23.1 g/L d-fructose and 18.9 g/L d-glucose to drinking water and weekly intraperitoneal injections of 0.2 μL/g CCl4 to induce steatohepatitis. Matching groups on control diet were included. Mice were treated daily, in a therapeutic manner after 8 weeks of diet. Treatment with BT-108-1 (5 mg/kg) or vehicle control occurred by oral gavage. Dosage was calculated based off mean body weights.
Analysis. Livers were excised and weighed. Sections of livers were excised and stored in buffered formalin for Sirius red staining or snap frozen for assessment of triglycerides. Severity of fibrosis was assessed by scoring of Sirius red stained liver.

In experiment [2] the test system is CD4+ T cells. Description: Immunological screening in vitro in CD4+ T cells (flow cytometry). It counts as cell-based, C57BL/6 mice. The conditions noted are these: 100 nanomolar, 24 h, anti-CD3/CD28, PMA and ionomycin last 6 h, relative to vehicle control. From the text: Cell culture. Spleens were excised from C57BL/6 mice. Spleens were crushed between the frosted ends of microscope slides and filtered to provide a cellular suspension. Red blood cells were lysed through hypotonic lysis. Remaining cells were washed and filtered. CD4+ T cells were enriched within the suspension using magnetic sorting based negative selection. Cells were collected and plated within 96 well plates coated with anti-CD3/CD28 and cultured in the presence of BT-108-1, BT-108-2, BT-108-6, BT-108-8, BT-108-12, and BT-108-15 at 0 or 100 nanomolar for 24 h. During the last 6 h of culture, cells were stimulated with phorbol 12-myristate-13-acetate (PMA) and ionomycin.
Immunological analysis. Cells were collected from 96 well plates and stained with a cocktail of antibodies for immunophenotyping by flow cytometry. Culture supernatant was collected and assayed for cytokine concentrations by cytometric bead array. Data was captured on a BD FACS Celesta and analyzed using FACSDiva.
In general terms: A flow cytometer gives signals particle by particle.

The test system of experiment [3] is imiquimod-induced psoriasis. In words: Imiquimod induced model of psoriasis. In kind it is in vivo, C57BL/6 mice. The conditions noted are these: 10 mg/kg oral gavage daily, one week, vs vehicle. As for the experimental part: IMQ-induced model. C57BL/6 mice were anesthetized, shaved, and briefly exposed to depilatory cream on the surface of the back. Mice were given three days to recover from the procedure prior to entry to the study. After 3 days, mice were challenged with approximately 60 mg of […] imiquimod cream daily by spreading cream over the shaved area. Mice were scored daily for erythema, scaling and skin thickness. Treatment with BT-108-1 (10 mg/kg) or vehicle control occurred by oral gavage. Dosage was calculated based off mean body weights.
Analysis. Spleens were excised and crushed by microscope slides. Red blood cells were hypotonically lysed from the resultant suspension. Samples were filtered, washed and centrifuged prior to staining. Th1 (Tbet+ IFNγ+), Th17 (RORγT+ IL17+), Treg (CD25+ FOXP3+ IL10+) and Tfh (BCL6+ IL21+) were quantified from CD3+ CD4+ T cells by flow cytometry.

For experiment [4], the system named is NOD model of type 1 diabetes. Description: NOD mouse model of type 1 diabetes. It counts as in vivo, Non-obese diabetic (NOD) ShiLt mice. The conditions noted are these: 10 mg/kg oral gavage daily, vs vehicle. The procedure: NOD model. Non-obese diabetic (NOD) ShiLt mice were used in this study. NOD mice have numerous genetic mutations that enable the spontaneous onset of hyperglycemia and pancreatic pathologies associated with T1D. Mice entered into the experiment at 9 weeks of age and were monitored for a 12-week period. Mice were treated daily with vehicle or 10 mg/kg BT-108-1 by oral gavage. Once weekly blood samples were collected from the tail vein to be tested for glucose concentration by glucometer.

Experiment [5] has as its system collagen induced arthritis. Description: Collagen induced model of arthritis. It counts as in vivo, C57Bl/6 mice. The note with it: 5 mg/kg oral daily for four weeks, vs vehicle. As for the experimental part:
Models. Six-week-old C57Bl/6 mice were immunized with 200 μg of chicken collagen emulsified in complete Freund's adjuvant by intradermal injections at the base of the tail. Mice were treated with 5 mg/kg of BT-108-1 or vehicle, daily for four weeks.
Immunological analysis. Spleens were excised from mice. Tissues were crushed and filtered to provide a cellular suspension. Red blood cells were lysed. Cells were labeled with mixtures of extracellular (CD45, CD3, CD4, CD8, B220, CD19, CD138, CD21, CD24, CD1d, CD11b, CD86, CD80) and intracellular (BCL6, IL21, IL10, TNF) antibodies in a sequential live staining in 96-well plates in preparation for flow cytometry. Data was captured on a BD FACS Celesta and analyzed using FACSDiva.

Experiment [6] relates to DSS colitis. In words: DSS model of colitis. In kind it is in vivo, mice. The note with it: 10 mg/kg once daily oral gavage, 7 days of DSS, vs vehicle. As for the experimental part: DSS model. Mice were given DSS in drinking water for seven days to induce disruption of the epithelial layer. At project initiation, mice were 8 weeks of age and began dosing 24 hours after being placed on DSS. BT-108-1 was prepared within a 0.5% methylcellulose (12-15 cP) solution. Dosage used was 10 mg/kg delivered once daily. Dosage was calculated based off mean body weights for each gender. Oral dosage was delivered by orogastric gavage of dosage in 0.2 mL volume.
Flow Cytometry. Colons were collected into RPMI/FBS buffer containing collagenase (300 U/mL) and DNase (50 U/mL) for digestion. Tissues were digested for 60 minutes under stirring at 37° C. Resultant cellular suspensions were filtered through 100 μm strainers, centrifuged (300× g, 8 min), and washed in fresh RPMI. Following filtration of the resulting single cell suspensions, immune cells were purified by Percoll gradient of cell-containing 40% Percoll overlayed onto 70% Percoll solution. After centrifugation, interphase was collected and washed to obtain enriched colonic lamina propria cell fractions. Cells were labeled with mixtures of extracellular (CD45, CD3, CD4, CD8, CD19, NK1.1, F4/80, CD11b, Gr1) antibodies in a sequential live staining in 96-well plates. Data was acquired using a FACS Celesta flow cytometer with FACSDiva software.
Histopathology. Colonic tissues were fixed in 10% formalin, paraffin embedded, and H&E stained. Sections were examined using an Olympus microscope. Histological score was assessed through a composite scoring system of leukocytic infiltration, epithelial erosion, and mucosal thickness.

Take `O=C(Nc1cncc(-c2cnnc3ccccc23)c1)C(O)(c1ccccc1)c1ncc[nH]1` (stereo not drawn) [BT-108-1, N-(5-(cinnolin-4-yl)pyridin-3-yl)-2-hydroxy-2-(1H-imidazol-2-yl)-2-phenylacetamide]: in experiment [1], the “body weight normalized liver weights” value is “reduced”, the “fibrotic scoring (Sirius red stained liver)” value is listed as “reduced” and the liver triglycerides result is “reduced”. Also, in experiment [2], the “IFNγ production / IFNγ+ CD4+ T cells” value is listed as “significant reduction” and the “TNFα production / TNF+ CD4+ T cells” value is listed as “significant reduction”. Moreover, in experiment [3], the “Th17 cells (CD4+ IL17+) in the spleen” value is reported as “reduced” and the “severity of disease (composite scoring of skin)” value is on record as “reduced”. Besides, the “proportion of mice that developed hyperglycemia” value in experiment [4] (by the end of the study) is reported as “lower proportion”. For the same compound, the “fasting blood glucose levels” value in experiment [4] (throughout the 12-week treatment period) is on record as “lower”. In addition, in experiment [5], the “proportion of IL-17+ CD4+ T cells in the spleens” value is given as “significantly reduced” and the “proportion of TNF+ immune cells in the spleens” value is reported as “significantly reduced”. Besides, in experiment [6], the “Th17 cells (CD4+ IL17+) in the colonic lamina propria” value is given as “decreased”, the “histopathology score (colon)” value was “decreased” and the “neutrophils in the colonic lamina propria” value is on record as “decreased”.
For the compound `COc1cccc(C(O)(C(=O)Nc2cncc(-c3cnnc4ccccc34)c2)c2ncc[nH]2)c1` (stereo not drawn) [BT-108-12, N-(5-(cinnolin-4-yl)pyridin-3-yl)-2-hydroxy-2-(1H-imidazol-2-yl)-2-(3-methoxyphenyl)acetamide], in experiment [2], the “IFNγ production / IFNγ+ CD4+ T cells” value is “significant reduction” and the “TNFα production / TNF+ CD4+ T cells” value is on record as “significant reduction”.
Regarding `O=C(Nc1cncc(-c2cnnc3ccc(C(F)(F)F)cc23)c1)C(O)(c1ccccc1)c1ncc[nH]1` (stereo not drawn) [BT-108-15, N-(5-(6-trifluoromethylcinnolin-4-yl)pyridin-3-yl)-2-hydroxy-2-(1H-imidazol-2-yl)-2-phenylacetamide], in experiment [2], the “IFNγ production / IFNγ+ CD4+ T cells” value is on record as “significant reduction” and the “TNFα production / TNF+ CD4+ T cells” value is “significant reduction”.
